Test results reported in patent publication US20100216875A1, “METHODS OF TREATING ALZHEIMER'S DISEASE” (priority 2006, published 2010).
“Also recorded” adds a separate entry of the source.

Assays:
[1] = tested on: Aβ40 production from endogenous APP in regulated secretory vesicles isolated from chromaffin cells; experiment: Aβ production from endogenous APP in isolated regulated secretory vesicles; format: biochemical, bovine; conditions: inhibitor 10 μM
Protocol: Regulated secretory vesicles isolated from chromaffin cells naturally produce Aβ from endogenous APP when incubated at 37° C. in vitro for several hours. These vesicles can be used as an in vitro screen for compounds that inhibit Aβ production. […] The effects of cathepsin B inhibitors, CA074 (10 μM, ♦) and CA074Me (10 μM, □), on the production of Aβ40 from endogenous APP in regulated secretory vesicles isolated from chromaffin cells was evaluated in time course studies. […] Each inhibitor was tested in triplicate; values represent x±sem (*statistically significant with p<0.05).
Cathepsin B compounds that were effective inhibitors of endogenous II-secretase activity were tested for inhibition of Aβ peptide production in regulated secretory vesicles. The effect of reversible cathepsin B compounds on production of Aβ40 and Aβ42 in isolated chromaffin vesicles was tested by incubating candidate inhibitors (at 10 μM) with lysed chromaffin vesicles under identical conditions as for the β-secretase assay for 8 hours. […] After incubation, Aβ40 and Aβ42 was measured by ELISA assays, as described for measurement of Aβ peptides in brain extracts. Each candidate inhibitor was assayed in triplicate.

[2] = tested on: primary neuronal chromaffin cells; experiment: Aβ secretion by primary neuronal chromaffin cell cultures; format: cell-based, bovine; conditions: 50 μM for 18 hours
Protocol: Neuronal bovine chromaffin cells in primary culture can be used to select compounds that affect Aβ in the regulated or constitutive pathway. Regulated secretory Aβ is determined by measuring Aβ in the cell culture media after inducing the cells to secrete using a triggering stimulus, such as KCl. The constitutive secretory Aβ is determined by measuring Aβ in cell culture media (also called “conditioned media”) from resting cells. […] Regulated secretion was induced by exposing the cells to KCl (50 mM) for 15 minutes. […] Treated cells (+) received CA074Me (50 μM) for 18 hours. The Aβ40 produced by regulated secretion of the treated cells is about 50% less than that produced from regulated secretion by untreated cells. […]
Reversible cathepsin B compounds that inhibited Aβ production in isolated secretory vesicles by at least 50% at 10 μM were tested for reduction of Aβ secreted from the regulated secretory pathway of primary neuronal chromaffin cells. […] Cells were incubated with inhibitors (first at 50 μM) for about 18 hours, and then KCl-induced secretion of Aβ from the regulated secretory pathway was analyzed, by incubating cells in 50 mM KCl for about 15 minutes and measurement of Aβ peptides in the secretion medium Inhibitor effects were more readily detected during increased rates of Aβ production, which can be induced by treatment of cells with PMA (phorbol myristate acetate, 100 nM). […]

[3] = tested on: primary neuronal chromaffin cells; conditions: cited from earlier work
[4] = healthy young males, cited from earlier work
muscular dystrophy = conditions: Phase I through III trials, Japan; cited from earlier work
[5] = mice, rats and dogs; cited from earlier work

## CCCNC(=O)[C@H]1O[C@@H]1C(=O)N[C@H](C(=O)N1CCC[C@H]1C(=O)OC)[C@@H](C)CC [CA074Me]
[1]
  effect on Aβ production in isolated regulated secretory vesicles: inhibited; also recorded: block Aβ production
[2]; KCl (50 mM) 15 minutes, vs untreated cells
  reduction of Aβ40 produced by regulated secretion: about 50%
[2]; resting cells
  Aβ40 produced by constitutive secretion vs untreated cells: the same
[3]
  CTFβ production in primary chromaffin cell cultures: reduced CTFβ production

## CCOC(=O)[C@H]1O[C@@H]1C(=O)N[C@@H](CC(C)C)C(=O)NCCC(C)C [E64d]
[4]; 5 mg/kg/day oral
  pulse, resting blood pressure, body temperature, grip force: No change
  subjective or objective symptoms, clinical tests: no change in subjective or objective symptoms or clinical tests
[4]; oral
  absorption: good absorption
  accumulation: no accumulation occurred
  total dose collected in urine: about 30%
Muscular dystrophy
  efficacy in muscular dystrophy: lack of efficacy
[5]
  therapeutic window / LD50: excellent therapeutic window
